# From patent publication US4152436A, “Acylated pentadienone hydrazone, method for preparing the same, and use as fire ant control agents” (American Cyanamid Company, priority 1978, dated 1979)
# Assays:
# Format in all cases: in vivo
# [1] = test system: Tobacco Budworm [Heliothis virescens (Fabricius)]; assay: Insecticide test, tobacco budworm 1st instar (eggs / newly hatched larvae on dipped cotton leaf); details: 72 h, read-out: % kill, Tobacco Budworm 1st Instar
# Procedure: Tobacco Budworm [Heliothis virescens (Fabricius)]
# A cotton plant with 2 true leaves expanded is dipped for 3 seconds with agitation in a 300 ppm solution. A 1.25 to 2 cm square of cheesecloth with about 50 to 100 budworm eggs 0-24 hours old is also dipped in the test solution and placed on one leaf to dry. The leaf with the treated budworm eggs is removed from the plant and placed in a 236.6 ml (8-oz) Dixie cup with a wet 5 cm piece of dental wick and covered with a lid. The other leaf is placed in a similar cup with a wick and a piece of cheesecloth infested with 50-100 newly hatched larvae is added before covering the cup with a lid. After 3 days at 26.7° C., observations of egg hatch are made as well as kill of newly hatched larvae, any inhibition of feeding, or interference of any sort with normal development.
# (§1) Compounds rated active (8 or 9) are further tested at reduced concentrations in 50% acetone:50% water.
# [2] = test system: Cabbage Looper [Trichoplusia ni (Hubner)]; assay: Insecticide test, cabbage looper 3rd instar; details: 48 h, 2 days, 26.7° C., read-out: % kill, Cabbage Looper 3rd Instar
# Procedure: Cabbage Looper [Trichoplusia ni (Hubner)]
# A primary leaf of a cotton plant is dipped in the test solution and agitated for 3 seconds. It is then set in a hood to dry. Following this, the leaf is placed in a 10 cm petri dish containing a moist filter paper at the bottom and 10 third-instar loopers. The dish is covered and held at 26.7° C. After 2 days, mortality counts and estimates of feeding damage are recorded. Those materials showing partial kill and/or inhibition of feeding are held for another day for further observations.
# as §1
# [3] = test system: Tobacco Budworm [Heliothis virescens (Fabricius)]; assay: whole plant or invertebrate; details: 72 h, read-out: % kill, Tobacco Budworm 3rd Instar
# Procedure: Third Instar Three cotton plants with just expanded cotyledons are dipped in a 1000 ppm solution, and placed in a hood to dry. When dry, each cotyledon is cut in half and each half is placed in one of ten 29.6 ml plastic medicine cups containing a 1.25 cm dental wick saturated with water, and one third instar budworm larva is added. The cup is capped and held for 3 days at 26.7° C., after which mortality counts are made. Compounds rated active (8 or 9) are further tested at reduced concentrations in 50% acetone:50% water.
# [4] = test system: Southern Armyworm [Spodoptera eridania (Cramer)]; assay: whole plant or invertebrate; details: for mortality at 10 ppm / mortality at 100 ppm / mortality at 1000 ppm: 48 h, read-out: % kill, Southern Armyworm 3rd Instar; for pest or weed control at 1000 µg/mL: 168 h, second leaf, 7 days from original treatment, read-out: % kill, Southern Armyworm 3rd Instar, 7 days (residual activity)
# Procedure: Southern Armyworm [Spodoptera eridania ([…] bean plant with just the primary leaves expanded to 7.6 to 10 cm is dipped for 3 seconds with agitation in a 1000 ppm solution and set in a hood to dry. […] The dish is covered and held at 26.7° C. After 2 days mortality counts and estimates of the amount of feeding are made. Compounds showing partial kill and/or inhibition of feeding are held for an extra day for further observations. All compounds showing activity as defined above are retested, using the second leaf on the bean plant, after an interval of 7 days from original treatment, as an assay of residual activity. Compounds rated active (8 or 9) are further tested at reduced concentrations in 50% acetone:50% water.
SMILES,mortality at 300 ppm [1] [%],mortality at 100 ppm [2] [%],mortality at 1000 ppm [2] [%],mortality at 100 ppm [3] [%],mortality at 1000 ppm [3] [%],mortality at 10 ppm [4] [%],mortality at 100 ppm [4] [%],mortality at 1000 ppm [4] [%],mortality at 10 ppm [2] [%],mortality at 10 ppm [3] [%],mortality at 100 ppm [1] [%],pest or weed control at 1000 µg/mL [4] [%],mortality at 10 ppm [1] [%]
CCCCCCCC(=O)N1CCCCN=C1NN=C(C=Cc1ccc(C(F)(F)F)cc1)C=Cc1ccc(C(F)(F)F)cc1,0 to 40,,,,,,,,,,,,
"CCCCCCCC(=O)N1CC(C)(C)CN=C1NN=C(C=Cc1ccc(C(F)(F)F)cc1)C=Cc1ccc(C(F)(F)F)cc1 [R1=CF3, R3=n-C7 H15]",,90,100,0,100,0,90,100,,,,,
"CCCCCC(=O)N1CC(C)(C)CN=C1NN=C(C=Cc1ccc(C(F)(F)F)cc1)C=Cc1ccc(C(F)(F)F)cc1 [R1=CF3, R3=n-C5 H11]",,50,100,70,100,0,100,100,0,0,,,
"CC(=O)N1CC(C)(C)CN=C1NN=C(C=Cc1ccc(C(F)(F)F)cc1)C=Cc1ccc(C(F)(F)F)cc1 [R1=CF3, R3=CH3, 1,5-bis(α,α,α-Trifluoro-p-tolyl)-1,4-pentadien-3-one, (1-acetyl-1,4,5,6-tetrahydro-5,5-dimethyl-2-pyrimidinyl)hydrazone]",86 to 95,86 to 95,100,100,100,0,100,100,41 to 60,40,0 to 40,100,
"CCCCCCCCC=CCCCCCCCC(=O)N1CC(C)(C)CN=C1NN=C(C=Cc1ccc(C(F)(F)F)cc1)C=Cc1ccc(C(F)(F)F)cc1 [R1=CF3, R3=n-C8 H17CHCH(CH2)7]",,100,100,100,100,20,100,100,0,0,100,100,0 to 40
"CCCCCCCCCC(=O)N1CC(C)(C)CN=C1NN=C(C=Cc1ccc(C(F)(F)F)cc1)C=Cc1ccc(C(F)(F)F)cc1 [R1=CF3, R3=n-C9 H19]",,60,100,100,100,,0,100,0,0,,,
"CCCCCCCCCCCCCCCC(=O)N1CC(C)(C)CN=C1NN=C(C=Cc1ccc(C(F)(F)F)cc1)C=Cc1ccc(C(F)(F)F)cc1 [R1=CF3, R3=n-C15 H31]",86 to 95,60,100,30,100,0,100,100,0,0,0 to 40,80,
"CCCCCCCCCCCCCCCC(=O)N1CC(C)(C)CN=C1NN=C(C=Cc1ccc(Cl)cc1)C=Cc1ccc(Cl)cc1 [R1=Cl, R3=n-C15 H31]",,0,100,0,100,,0,100,,,,100,
"CCCCC(=O)N1CC(C)(C)CN=C1NN=C(C=Cc1ccc(C(F)(F)F)cc1)C=Cc1ccc(C(F)(F)F)cc1 [R1=CF3, R3=n-C4 H9]",86 to 95,100,100,40,100,0,100,100,,,,100,
CC1(C)CN=C(NN=C(C=Cc2ccc(C(F)(F)F)cc2)C=Cc2ccc(C(F)(F)F)cc2)N(C(=O)c2ccccc2)C1 [drawing 35],,100,100,100,100,0,100,100,0,0,0 to 40,100,
CC(=O)N1CCCCN=C1NN=C(C=Cc1ccc(C(F)(F)F)cc1)C=Cc1ccc(C(F)(F)F)cc1,,100,100,70,100,100,0,100,0,0,41 to 60,100,0 to 40
CC1(C)CN=C(NN=C(C=Cc2ccc(C(F)(F)F)cc2)C=Cc2ccc(C(F)(F)F)cc2)N(C(=O)C=Cc2ccccc2)C1,0,,,,,,,0,,,,,
O=C(c1ccccc1)N1CCCCN=C1NN=C(C=Cc1ccc(C(F)(F)F)cc1)C=Cc1ccc(C(F)(F)F)cc1,0 to 40,,,,,,,,,,,,
CC1(C)CN=C(NN=C(C=Cc2ccc(Cl)cc2)C=Cc2ccc(Cl)cc2)N(C(=O)c2ccccc2)C1,,100,100,0,100,30,100,100,0,,41 to 60,100,0 to 40
CC(=O)N1CC(C)(C)CN=C1N(N=C(C=Cc1ccc(C(F)(F)F)cc1)C=Cc1ccc(C(F)(F)F)cc1)C(C)=O,,86 to 95,100,0,100,0,100,100,41 to 60,,,0,
CCCCCCCCCCCCCCCC(=O)N1CCCCN=C1NN=C(C=Cc1ccc(C(F)(F)F)cc1)C=Cc1ccc(C(F)(F)F)cc1,0 to 40,,,,,,,,,,,,
"CC(C)=CC(=O)N1CC(C)(C)CN=C1NN=C(C=Cc1ccc(C(F)(F)F)cc1)C=Cc1ccc(C(F)(F)F)cc1 [R1=CF3, R3=(CH3)2 CCH]",,10,100,0,100,,0,100,,,,0,
"CCCCCCCCCCCC(=O)N1CC(C)(C)CN=C1NN=C(C=Cc1ccc(C(F)(F)F)cc1)C=Cc1ccc(C(F)(F)F)cc1 [R1=CF3, R3=n-C11 H23]",,70,100,70,100,0,100,100,0,0,,,
"CCCCCCCCCCCCCC(=O)N1CC(C)(C)CN=C1NN=C(C=Cc1ccc(C(F)(F)F)cc1)C=Cc1ccc(C(F)(F)F)cc1 [R1=CF3, R3=n-C13 H27]",,60,100,90,100,,0,100,0,0,,,
